Legend:
Format in all cases: cell-based
[1] = tested on: Red blood cells (RBC); assay: RBC survival (cell count) after freezing/thawing or lyophilizing/rehydrating at 2.5 ml
Method: Red blood cells (RBC) were separated from whole blood received from the Israeli Blood Bank. The blood was centrifuged for 10 minutes at 1500 g and the plasma was discarded. […] Afterwards the supernatant was discarded, and an equal volume of cryopreservation solution selected from the solutions in Table I was added to the packed RBC. Different volumes (2.5-50 ml) of the RBC suspension were transferred to a 16-25 mm diameter glass test tube ([…], Israel). The experiment of freezing 200 ml of RBC suspension was done in a 2000 ml freezing bag (Baxter-Fenwal, USA). Samples were then either frozen and thawed in a water bath at 37° C. or lyophilized and rehydrated with double distilled water (DDW) at 37° C. Glass test tubes containing RBC were frozen in a modified MTG freezing apparatus, as described in WO 03/020874 (manufactured by IMT, Israel). The thermal gradient in the cooling unit was set to 5.5° C./mm or 10.5° C./mm or 15.5° C./mm (as detailed below) with final temperatures of -50° C., -100° C. or -150° C. […] During freezing the test tubes that contained only 2.5 ml samples were rotated at a rate of 56 rpm. Subsequent to freezing, biological material was taken from each test tube to test for cell viability. Lyophilization was performed in a commercial lyophilizer (Labconco, USA) with a condenser temperature of -82° C. for 72 hours. The biological material was is rehydrated by adding DDW to reach the sample's original volume. Frozen (but not lyophilized) material was thawed by immersion in a water bath at 37° C. for until it melted. Melting was observed visually. Cells were counted using the […] 60 cell counter (ABX, France), in accordance with the manufacturer's manual. This device provides a complete cell count (CBC) that includes parameters such as: cell number, hematocrit, mean cell volume, hemoglobin, etc. […] In these experiments the cell suspension volume was 2.5 ml.

[2] = tested on: Red blood cells (RBC); assay: Osmotic fragility of RBC; conditions: 0.9 mg/ml EGCG, 20% dextran 40 kD, 0.8% NaCl
Method: The control group was whole blood. Portions of each of the EGCG supplemented and control were exposed to different sodium chloride concentrations of: 0.1, 0.2, 0.3, 0.4, 0.5, 0.6, 0.7, 0.8 and 0.9% (w/v).
Free hemoglobin was measured as described above and the hemolysis percentage was calculated using Formula I. The results of this experiment are shown in FIG. 8.

[3] = tested on: Red blood cells (RBC); assay: Freezing RBC without thermal gradients at varying NaCl concentrations; conditions: for Cell Number, Thawed / MCV, Thawed: 24 h at −80° C.
Method: Samples volume was 1 ml. The Samples were maintained for at least 10 min at 5° C. and then transferred to a metal plate in a conventional freezing device (Forma, USA) at −80° C. for a period of 24 h. […] The percentage shown, is the thawed samples as compared with a fresh sample.

[4] = tested on: Red blood cells (RBC); assay: Hypothermic preservation of whole blood at 4° C.: cell count, MCV, ATP bioluminescence; conditions: on arrival, 15 minutes after adding, 1 week later, versus PBS bag
Method: Whole blood units, 2 days old, 500 ml each, were received from the Israeli blood services. 2 ml PBS were added to one bag and 2 ml PBS comprising 0.236 gram GTE (Taiyo, China) were added to the other. This GTE contains ˜80% catechins which contained the at least the following polyphenols: 48% EGCG, 10.8% epigallocatechin (EGC), 1.4% DL-Catechin (DL-C; (2S,3R)-2-(3,4-Dihydroxyphenol)-3,4-dihydro-1(2H)-benzopyran-3,5,7-triol), 5.6% epicatechin (EC). 2.6% gallocatechin gallate (GCG) and 14.5% epicatechin gallate (ECG). The final concentration of GTE was 0.4725 mg/ml. During delivery and storage the blood was maintained in a refrigerator at 4° C. storage.
1 ml samples were taken from each bag at the following times: (a) when the units arrived, (b) 15 minutes after adding PBS of EGCG and (c) 1 week later. The samples were counted and the mean cell value was measured using the Pentra 60 (ABX, France).
ATP content of each sample was assayed using ATP Bioluminescence Kit CLS II (Roche, Switzerland) according to the manufacturer's manual. In this assay, light emission is in direct proportion to the amount of ATP in the sample.

[5] = tested on: Mononuclear cells (MNC) derived from umbilical cord blood (UCB); assay: MNC proliferation assay based on thymidine incorporation; conditions: FIG. 9; cells lyophilized at ×10 EGCG (4.12 mM) versus ×2.5 EGCG (1.03 mM); 48 hour incubation
Method: In addition, a cell proliferation assay was performed. In brief, the hydrated cells were incubated for 48 hour after which a proliferation assay based on thymidine incorporation was carried out (Promega, USA). The results of the proliferation assay are depicted in FIG. 9, wherein the proliferation index of the cells is depicted as a function of their number at initial plating. […] In addition, as the cells' initial plating number increases so does the proliferation index. The almost linear proportion shown for one of the ×10 EGCG samples is similar to that observed with fresh cells

O=C(O[C@@H]1Cc2c(O)cc(O)cc2O[C@@H]1c1cc(O)c(O)c(O)c1)c1cc(O)c(O)c(O)c1 [EGCG, Epigallocatechin gallate]
RBC survival, 1B Rehydrated ([1]; frozen at 1,000° C./min, lyophilized, rehydrated with DDW): 49.19%
RBC survival, 1A Thawed ([1]; frozen at 1,000° C./min, thawed, not lyophilized, percentage of total fresh cells counted): 84.53%
RBC survival, 2A Thawed ([1]; frozen at 2,000° C./min, thawed, not lyophilized): 72.92%
hemolysis versus control (whole blood) ([2]; NaCl concentrations above 0.6% (w/v)): no significant difference
hemolysis versus control (whole blood) ([2]; hypotonic environment (below 0.5% NaCl)): lower hemolysis rates
Cell Number, % thawed compared with fresh ([3]; NaCl 0.6%): 100.00%
MCV, % thawed compared with fresh ([3]; NaCl 0.6%): 120.22%
Cell Number, Thawed ([3]; NaCl 0.6%): 4.12 10^9/ml
MCV, Thawed ([3]; NaCl 0.6%): 107 μm^3
Cell Number, Fresh ([3]; NaCl 0.6%): 4.12 10^9/ml
Cell Number, % thawed compared with fresh ([3]; NaCl 0.7%): 100.00%
MCV, % thawed compared with fresh ([3]; NaCl 0.7%): 124.44%
Cell Number, Thawed ([3]; NaCl 0.7%): 4.27 10^9/ml
MCV, Thawed ([3]; NaCl 0.7%): 112 μm^3
Cell Number, Fresh ([3]; NaCl 0.7%): 4.27 10^9/ml
Cell Number, % thawed compared with fresh ([3]; NaCl 0.8%): 100.00%
MCV, % thawed compared with fresh ([3]; NaCl 0.8%): 118.89%
Cell Number, Thawed ([3]; NaCl 0.8%): 4.71 10^9/ml
MCV, Thawed ([3]; NaCl 0.8%): 107 μm^3
Cell Number, Fresh ([3]; NaCl 0.8%): 4.71 10^9/ml
Cell Number, % thawed compared with fresh ([3]; NaCl 0.9% (Saline)): 75.50%
MCV, % thawed compared with fresh ([3]; NaCl 0.9% (Saline)): 101.11%
Cell Number, Thawed ([3]; NaCl 0.9% (Saline)): 3.42 10^9/ml
MCV, Thawed ([3]; NaCl 0.9% (Saline)): 91 μm^3
Cell Number, Fresh ([3]; NaCl 0.9% (Saline)): 4.53 10^9/ml
Cells counts [4]: essentially the same
MCV [4]: essentially the same
proliferation index [5]: higher proliferation index
